From patent publication US20200163984A1, “USE OF ISOVALERYL SPIRAMYCIN I, II AND/OR III IN MANUFACTURING MEDICAMENT FOR TREATING AND/OR PREVENTING TUMOR, AND MEDICAMENT” (SHENYANG FUYANG PHARMACEUTICAL TECHNOLOGY CO., LTD., priority 2017, published 2020)

Legend:
[1] = tested on: transplanted tumor of human large cell lung cancer H460 cells; assay: H460 transplanted tumor in nude mice
Description: (§1) Then cell concentration was adjusted to 1×10^7/ml with matrigel, then each nude mouse was inoculated subcutaneously with 0.2 ml of cells at its right armpit and recorded as the first day of inoculation. When the tumor grows to be greater than or equal to 100 mm^3, the mice were randomly divided into 11 groups with 6 mice in each group: isovaleryl spiramycin I groups with doses of 25, 50 and 100 mg/kg, isovaleryl spiramycin II groups with doses of 25, 50 and 100 mg/kg, and isovaleryl spiramycin III groups with doses of 25, 50 and 100 mg/kg. Each group was continuously administered intragastrically for 30 days with a dose of 20 ml/kg. The mice were sacrificed the next day after drug withdrawal and the indicators were tested. The long diameter and short diameter of the tumor, and the body weight of each mouse were recorded every 3 days from drug administration to nude mouse sacrifice.
(§2) The body weight of the nude mice and the long diameter (a) and short diameter (b) of the transplanted tumor were measured every 3 days, and the tumor volume (v), relative tumor volume (RTV) and relative tumor proliferation rate (T/C) are calculated respectively according to the following formulas, wherein V=a×b^2/2; RTV=V/V0 (V0 is the tumor volume before administration, V is the tumor volume before sacrifice), and T/C (%)=treatment group RTV/model control group RTV×100%.
(§3) Each mouse was weighed and sacrificed. After the tumor was completely stripped off from the body of the mouse, the non-tumor tissues such as blood stains and fat were removed to weigh the tumor and calculate the tumor growth inhibition rate. The average tumor weight of each group of mice is used as an indicator of efficacy. Tumor growth inhibition rate (%)=(1−the average tumor weight of the treatment group/the average tumor weight of the model group)×100%.

[2] = tested on: transplanted tumor of human gastric adenocarcinoma cell SGC7901; assay: SGC7901 transplanted tumor in nude mice
Description: as §1, with “group: a model group, a cyclophosphamide group,” for “group:”
as §2, §3

[3] = tested on: transplanted tumor of human pancreatic cancer cell PANC-1; assay: PANC-1 transplanted tumor in nude mice; conditions: for Tumor Volume (mm3) (d 1): d1
Description: as §1, with “group: a model group, a cyclophosphamide group,” for “group:”
as §2, §3

[4] = Spleen index of A549 lung cancer tumor-bearing mice; conditions: n = 6
[5] = H460, 25 mg/kg (low dose) i.g. 30 days
[6] = H460, 50 mg/kg (medium dose) i.g. 30 days
[7] = H460, 100 mg/kg (high dose) i.g. 30 days
[8] = SGC7901, 12.5 mg/kg (low dose) i.g. 30 days
[9] = SGC7901, 25 mg/kg (medium dose) i.g. 30 days
[10] = SGC7901, 50 mg/kg (high dose) i.g. 30 days
[11] = PANC-1, 12.5 mg/kg (low dose) i.g. 30 days
[12] = PANC-1, 25 mg/kg (medium dose) i.g. 30 days
[13] = PANC-1, 50 mg/kg (high dose) i.g. 30 days

For `CCC(=O)O[C@@H]1CC(=O)O[C@H](C)C/C=C/C=C/[C@H](O[C@H]2CC[C@H](N(C)C)[C@@H](C)O2)[C@H](C)C[C@H](CC=O)[C@H](O[C@@H]2O[C@H](C)[C@@H](O[C@H]3C[C@@](C)(O)[C@@H](OC(=O)CC(C)C)[C@H](C)O3)[C@H](N(C)C)[C@H]2O)[C@H]1OC` [Isovaleryl spiramycin III, isovaleryl spiramycin III], the “Inhibition Rate (tumor growth inhibition rate)” value (from here on “Inhibition Rate”) [1, 5] was 17.41%, the “Relative Tumor Proliferation Rate (T/C)” value [1, 5] was 63.03% and the “Relative Tumor Volume (RTV)” value [1, 5] was 6.62 ± 2.34. The “Tumor Volume (d 1)” value [1, 5] was 140.44 ± 14.04 mm3, the “Tumor Volume (d 30)” value [1, 5] was 914.05 ± 279.14 mm3 and the “Tumor Weight” value [1, 5] was 1.42 ± 0.26 g. For the same molecule, the “Inhibition Rate” value [1, 6] was 23.31%, the “Relative Tumor Proliferation Rate (T/C)” value [1, 6] was 42.54% and the “Relative Tumor Volume (RTV)” value [1, 6] was 4.47 ± 0.94. The “Tumor Volume (d 1)” value [1, 6] was 148.59 ± 14.47 mm3, the “Tumor Volume (d 30)” value [1, 6] was 666.74 ± 160.61 mm3 and the “Tumor Weight” value [1, 6] was 1.32 ± 0.25 g. The “Inhibition Rate” value [1, 7] was 63.93%, the “Relative Tumor Proliferation Rate (T/C)” value [1, 7] was 35.95% and the “Relative Tumor Volume (RTV)” value [1, 7] was 3.78 ± 0.84. For the same molecule, the “Tumor Volume (d 1)” value [1, 7] was 143.19 ± 17.40 mm3, the “Tumor Volume (d 30)” value [1, 7] was 531.56 ± 78.33 mm3 and the “Tumor Weight” value [1, 7] was 0.62 ± 0.26 g. For the same molecule, the “tumor volume and relative tumor volume compared with the model group” value (from here on “tumor volume and relative tumor volume”) ([1]; H460, low, medium and high doses, P<0.05) was “significantly lower”, the “mouse weight compared with the model group” value ([1]; mouse, in vivo) was “no significant changes” and the “Inhibition Rate” value [2, 8] was 21.68%. The “Relative Tumor Proliferation Rate (T/C)” value [2, 8] was 65.48%, the “Relative Tumor Volume (RTV)” value [2, 8] was 5.52 ± 4.03 and the “Tumor Volume (d 1)” value [2, 8] was 186.22 ± 80.26 mm3. The “Tumor Volume (d 30)” value [2, 8] was 1326.06 ± 96.10 mm3, the “Tumor Weight” value [2, 8] was 1.23 ± 0.70 g and the “Inhibition Rate” value [2, 9] was 41.13%. The “Relative Tumor Proliferation Rate (T/C)” value [2, 9] was 49.44%, the “Relative Tumor Volume (RTV)” value [2, 9] was 3.77 ± 6.51 and the “Tumor Volume (d 1)” value [2, 9] was 274.12 ± 83.50 mm3. The “Tumor Volume (d 30)” value [2, 9] was 1473.96 ± 798.75 mm3, the “Tumor Weight” value [2, 9] was 0.92 ± 0.40 g and the “Inhibition Rate” value [2, 10] was 63.34%. The “Relative Tumor Proliferation Rate (T/C)” value [2, 10] was 30.34%, the “Relative Tumor Volume (RTV)” value [2, 10] was 3.66 ± 1.35 and the “Tumor Volume (d 1)” value [2, 10] was 295.39 ± 188.69 mm3. For the same molecule, the “Tumor Volume (d 30)” value [2, 10] was 974.67 ± 839.14 mm3, the “Tumor Weight” value [2, 10] was 0.58 ± 0.52 g and the “tumor volume and relative tumor volume” value ([2]; SGC7901, low, medium and high doses, P<0.05) was “significantly lower”. The “mouse weight compared with the model group” value ([2]; mouse, in vivo) was “no significant changes”, the “Inhibition Rate” value [3, 11] was 26.75% and the “Tumor Weight” value [3, 11] was 1.99 ± 0.81 g. For the same molecule, the “Inhibition Rate” value [3, 12] was 39.09%, the “Tumor Weight” value [3, 12] was 1.66 ± 0.66 g and the “Inhibition Rate” value ([3]; PANC-1, 25 mg/kg (medium dose) i.g. 30 days, listed as isovaleryl spiramycin III) was 39.08%. The “Inhibition Rate” value [3, 13] was 61.78%, the “Tumor Weight” value [3, 13] was 1.03 ± 0.54 g and the “Relative Tumor Proliferation Rate (T/C)” value ([3]; PANC-1, high dose i.g. 30 days) was 34.91%. The “Relative Tumor Proliferation Rate (T/C)” value ([3]; PANC-1, low dose i.g. 30 days) was 75.03%, the “tumor volume and relative tumor volume” value ([3]; PANC-1, low, medium and high doses, P<0.05) was “significantly lower” and the “Relative Tumor Proliferation Rate (T/C)” value ([3]; PANC-1, medium dose i.g. 30 days) was 54.92%. The “Relative Tumor Proliferation Rate (T/C)” value ([3]; PANC-1 nude mice, 12.5 mg/kg) was 75.03%, the “Relative Tumor Volume (RTV)” value ([3]; PANC-1 nude mice, 12.5 mg/kg) was 13.13 ± 3.15 and the “Tumor Volume (mm3) (d 1)” value ([3]; PANC-1 nude mice, 12.5 mg/kg) was 137.99 ± 20.99 mm3. The “Tumor Volume (mm3) (d30)” value ([3]; PANC-1 nude mice, 12.5 mg/kg) was 1758.49 ± 129.06 mm3, the “Relative Tumor Proliferation Rate (T/C)” value ([3]; PANC-1 nude mice, 25 mg/kg) was 54.92% and the “Relative Tumor Volume (RTV)” value ([3]; PANC-1 nude mice, 25 mg/kg) was 9.61 ± 1.66. The “Tumor Volume (mm3) (d 1)” value ([3]; PANC-1 nude mice, 25 mg/kg) was 109.95 ± 13.42 mm3, the “Tumor Volume (mm3) (d30)” value ([3]; PANC-1 nude mice, 25 mg/kg) was 1043.33 ± 113.01 mm3 and the “Relative Tumor Proliferation Rate (T/C)” value ([3]; PANC-1 nude mice, 50 mg/kg) was 34.90%. For the same molecule, the “Relative Tumor Volume (RTV)” value ([3]; PANC-1 nude mice, 50 mg/kg) was 5.17 ± 0.64, the “Tumor Volume (mm3) (d 1)” value ([3]; PANC-1 nude mice, 50 mg/kg) was 113.14 ± 9.02 mm3 and the “Tumor Volume (mm3) (d30)” value ([3]; PANC-1 nude mice, 50 mg/kg) was 684.21 ± 115.00 mm3. For the same molecule, the “mouse weight compared with the model group” value ([3]; mouse, in vivo) was “no significant changes”, the “Spleen Index (%)” value ([4]; dose 13 mg/kg) was 0.32 ± 0.02% and the “Spleen Index (%)” value ([4]; dose 26 mg/kg) was 0.33 ± 0.11%. For the same molecule, the “Spleen Index (%)” value ([4]; dose 52 mg/kg) was 0.35 ± 0.09%.
